Reference: patent publication US20230085307A1, “PYRIDAZINONE COMPOUND AND HERBICIDE” (NISSAN CHEMICAL CORPORATION, priority 2019, published 2023)

Legend:
late watergrass = assay: Test Example 1: herbicidal activity, application before weed generation under submerged conditions (Table 16, symbol A); type: in vivo, late watergrass (Echinochloa oryzicola); conditions: amount of applied herbicide 320 g/ha
Summary of the method: (§1)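 Alluvial soil was flooded to 4 cm depth, weed seeds were sown mixed and 2.5-leaf rice seedlings were transplanted. On sowing day, the compound's emulsion, diluted in water to a set dose, was applied to the water surface. Plants grew at 25–30 °C and were scored 0–5 after three weeks.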

Japanese bulrush = assay: Test Example 1: herbicidal activity, application before weed generation under submerged conditions (Table 16, symbol B); type: in vivo, Japanese bulrush (Schoenoplectus juncoides); conditions: amount of applied herbicide 320 g/ha
Summary of the method: as §1

oval-leafed pondweed = assay: Test Example 1: herbicidal activity, application before weed generation under submerged conditions (Table 16, symbol C); type: in vivo, oval-leafed pondweed (Monochoria vaginalis); conditions: amount of applied herbicide 320 g/ha
Summary of the method: as §1

barnyard grass [1] = assay: Test Example 3: herbicidal effect by foliage application, Wagner pot (Table 18, symbol H); type: in vivo, barnyard grass (Echinochloa crus-galli); conditions: 320 g/ha
Summary of the method: (§2)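 Plants were sown in alluvial soil held under 0.1–0.5 cm standing water and grown 14 days in a greenhouse at 25–30 °C. An emulsifiable formulation, water-diluted to the set dose, was then sprayed onto the foliage, and effects were scored three weeks later using previously defined criteria.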

Chinese sprangletop = assay: Test Example 3: herbicidal effect by foliage application, Wagner pot (Table 18, symbol D); type: in vivo, chinese sprangletop (Leptochloa chinensis); conditions: 320 g/ha
Summary of the method: as §2

rice flat sedge = assay: Test Example 3: herbicidal effect by foliage application, Wagner pot (Table 18, symbol E); type: in vivo, rice flat sedge (Cyperus iria); conditions: 320 g/ha
Summary of the method: as §2

southern crabgrass [2] = assay: Test Example 4: herbicidal effect by soil treatment (Table 19, symbol F); type: in vivo, southern crabgrass (Digitaria ciliaris); conditions: amount of applied herbicide 320 g/ha
Summary of the method: (§3)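 Herbicidal effect was rated 3 weeks after treatment, using the scoring criteria of an earlier test. The compound, formulated as an emulsion and diluted in water to a set herbicide amount, had been sprayed uniformly on soil over freshly sown seeds. Growth took place in a greenhouse at 25° C. to 30° C.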

green foxtail [3] = assay: Test Example 4: herbicidal effect by soil treatment (Table 19, symbol G); type: in vivo, green foxtail (Setaria viridis); conditions: amount of applied herbicide 320 g/ha
Summary of the method: as §3

barnyard grass [4] = assay: Test Example 4: herbicidal effect by soil treatment (Table 19, symbol H); type: in vivo, barnyard grass (Echinochloa crus-galli); conditions: amount of applied herbicide 320 g/ha
Summary of the method: as §3

wild oat [5] = assay: Test Example 4: herbicidal effect by soil treatment (Table 19, symbol I); type: in vivo, wild oat (Avena fatua); conditions: amount of applied herbicide 320 g/ha
Summary of the method: as §3

blackgrass [6] = assay: Test Example 4: herbicidal effect by soil treatment (Table 19, symbol J); type: in vivo, blackgrass (Alopecurus myosuroides); conditions: amount of applied herbicide 320 g/ha
Summary of the method: as §3

Italian ryegrass [7] = assay: Test Example 4: herbicidal effect by soil treatment (Table 19, symbol K); type: in vivo, Italian ryegrass (Lolium multiflorum); conditions: amount of applied herbicide 320 g/ha
Summary of the method: as §3

windgrass [8] = assay: Test Example 4: herbicidal effect by soil treatment (Table 19, symbol L); type: in vivo, windgrass (Apera spica-venti); conditions: amount of applied herbicide 320 g/ha
Summary of the method: as §3

velvetleaf [9] = assay: Test Example 4: herbicidal effect by soil treatment (Table 19, symbol M); type: in vivo, velvetleaf (Abutilon theophrasti); conditions: amount of applied herbicide 320 g/ha
Summary of the method: as §3

redroot pigweed [10] = assay: Test Example 4: herbicidal effect by soil treatment (Table 19, symbol N); type: in vivo, redroot pigweed (Amaranthus retroflexus); conditions: amount of applied herbicide 320 g/ha
Summary of the method: as §3

lambsquarters [11] = assay: Test Example 4: herbicidal effect by soil treatment (Table 19, symbol O); type: in vivo, lambsquarters (Chenopodium album); conditions: amount of applied herbicide 320 g/ha
Summary of the method: as §3

chickweed [12] = assay: Test Example 4: herbicidal effect by soil treatment (Table 19, symbol P); type: in vivo, common chickweed (Stellaria media); conditions: amount of applied herbicide 320 g/ha
Summary of the method: as §3

false cleavers = assay: Test Example 4: herbicidal effect by soil treatment (Table 19, symbol Q); type: in vivo, false cleavers (Galium spurium); conditions: amount of applied herbicide 320 g/ha
Summary of the method: as §3

persian speedwell [13] = assay: Test Example 4: herbicidal effect by soil treatment (Table 19, symbol R); type: in vivo, Persian speedwell (Veronica persica); conditions: amount of applied herbicide 320 g/ha
Summary of the method: as §3

southern crabgrass [14] = assay: Test Example 5: herbicidal effect by foliage application, plastic box (Table 20, symbol F); type: in vivo, southern crabgrass (Digitaria ciliaris); conditions: 320 g/ha, foliage application after 14-day growth, evaluated three weeks after application
Summary of the method: (§4)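 Foliar spray test: emulsion formulation diluted in water to a set application rate, sprayed onto 14-day-old plants raised in diluvial soil at 25° C to 30° C under glass. Both herbicidal effect and crop effect rated visually three weeks later.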

green foxtail [15] = assay: Test Example 5: herbicidal effect by foliage application, plastic box (Table 20, symbol G); type: in vivo, green foxtail (Setaria viridis); conditions: 320 g/ha, foliage application after 14-day growth, evaluated three weeks after application
Summary of the method: as §4

barnyard grass [16] = assay: Test Example 5: herbicidal effect by foliage application, plastic box (Table 20, symbol H); type: in vivo, barnyard grass (Echinochloa crus-galli); conditions: 320 g/ha, foliage application after 14-day growth, evaluated three weeks after application
Summary of the method: as §4

wild oat [17] = assay: Test Example 5: herbicidal effect by foliage application, plastic box (Table 20, symbol I); type: in vivo, wild oat (Avena fatua); conditions: 320 g/ha, foliage application after 14-day growth, evaluated three weeks after application
Summary of the method: as §4

blackgrass [18] = assay: Test Example 5: herbicidal effect by foliage application, plastic box (Table 20, symbol J); type: in vivo, blackgrass (Alopecurus myosuroides); conditions: 320 g/ha, foliage application after 14-day growth, evaluated three weeks after application
Summary of the method: as §4

Italian ryegrass [19] = assay: Test Example 5: herbicidal effect by foliage application, plastic box (Table 20, symbol K); type: in vivo, Italian ryegrass (Lolium multiflorum); conditions: 320 g/ha, foliage application after 14-day growth, evaluated three weeks after application
Summary of the method: as §4

windgrass [20] = assay: Test Example 5: herbicidal effect by foliage application, plastic box (Table 20, symbol L); type: in vivo, windgrass (Apera spica-venti); conditions: 320 g/ha, foliage application after 14-day growth, evaluated three weeks after application
Summary of the method: as §4

velvetleaf [21] = assay: Test Example 5: herbicidal effect by foliage application, plastic box (Table 20, symbol M); type: in vivo, velvetleaf (Abutilon theophrasti); conditions: 320 g/ha, foliage application after 14-day growth, evaluated three weeks after application
Summary of the method: as §4

redroot pigweed [22] = assay: Test Example 5: herbicidal effect by foliage application, plastic box (Table 20, symbol N); type: in vivo, redroot pigweed (Amaranthus retroflexus); conditions: 320 g/ha, foliage application after 14-day growth, evaluated three weeks after application
Summary of the method: as §4

lambsquarters [23] = assay: Test Example 5: herbicidal effect by foliage application, plastic box (Table 20, symbol O); type: in vivo, lambsquarters (Chenopodium album); conditions: 320 g/ha, foliage application after 14-day growth, evaluated three weeks after application
Summary of the method: as §4

chickweed [24] = assay: Test Example 5: herbicidal effect by foliage application, plastic box (Table 20, symbol P); type: in vivo, common chickweed (Stellaria media); conditions: 320 g/ha, foliage application after 14-day growth, evaluated three weeks after application
Summary of the method: as §4

persian speedwell [25] = assay: Test Example 5: herbicidal effect by foliage application, plastic box (Table 20, symbol R); type: in vivo, Persian speedwell (Veronica persica); conditions: 320 g/ha, foliage application after 14-day growth, evaluated three weeks after application
Summary of the method: as §4

CSc1ccc(-c2sc3c(F)cccc3c2-c2c(O)c(C)nn(C)c2=O)cc1 [4-050]
Herbicidal effect, A: late watergrass (late watergrass): 3 (Herbicidal rate of 40% or more and less than 70%)
Herbicidal effect, B: Japanese bulrush (Japanese bulrush): 0 (Herbicidal rate of 5% or less (almost no effect))
Herbicidal effect, C: oval-leafed pondweed (oval-leafed pondweed): 0 (Herbicidal rate of 5% or less (almost no effect))
herbicidal effect on barnyard grass (H) (barnyard grass [1]): 5 (Herbicidal rate of 90% or more (almost completely withered))
herbicidal effect on Chinese sprangletop (D) (Chinese sprangletop): 4 (Herbicidal rate of 70% or more and less than 90%)
herbicidal effect on rice flat sedge (E) (rice flat sedge): 4 (Herbicidal rate of 70% or more and less than 90%)
Herbicidal effect by soil treatment, F: southern crabgrass (southern crabgrass [2]): 2 (Herbicidal rate of 20% or more and less than 40%)
Herbicidal effect by soil treatment, G: green foxtail (green foxtail [3]): 3 (Herbicidal rate of 40% or more and less than 70%)
Herbicidal effect by soil treatment, H: barnyard grass (barnyard grass [4]): 2 (Herbicidal rate of 20% or more and less than 40%)
Herbicidal effect by soil treatment, I: wild oat (wild oat [5]): 0 (Herbicidal rate of 5% or less (almost no effect))
Herbicidal effect by soil treatment, J: blackgrass (blackgrass [6]): 0 (Herbicidal rate of 5% or less (almost no effect))
Herbicidal effect by soil treatment, K: Italian ryegrass (Italian ryegrass [7]): 1 (Herbicidal rate of 5% or more and less than 20%)
Herbicidal effect by soil treatment, L: windgrass (windgrass [8]): 0 (Herbicidal rate of 5% or less (almost no effect))
Herbicidal effect by soil treatment, M: velvetleaf (velvetleaf [9]): 3 (Herbicidal rate of 40% or more and less than 70%)
Herbicidal effect by soil treatment, N: redroot pigweed (redroot pigweed [10]): 4 (Herbicidal rate of 70% or more and less than 90%)
Herbicidal effect by soil treatment, O: lambsquarters (lambsquarters [11]): 3 (Herbicidal rate of 40% or more and less than 70%)
Herbicidal effect by soil treatment, P: chickweed (chickweed [12]): 4 (Herbicidal rate of 70% or more and less than 90%)
Herbicidal effect by soil treatment, Q: false cleavers (false cleavers): 0 (Herbicidal rate of 5% or less (almost no effect))
Herbicidal effect by soil treatment, R: persian speedwell (persian speedwell [13]): 4 (Herbicidal rate of 70% or more and less than 90%)
herbicidal effect on F: southern crabgrass (evaluation grade 0-5) (southern crabgrass [14]): 2 (Herbicidal rate of 20% or more and less than 40%)
herbicidal effect on G: green foxtail (evaluation grade 0-5) (green foxtail [15]): 5 (Herbicidal rate of 90% or more (almost completely withered))
herbicidal effect on H: barnyard grass (evaluation grade 0-5) (barnyard grass [16]): 5 (Herbicidal rate of 90% or more (almost completely withered))
herbicidal effect on I: wild oat (evaluation grade 0-5) (wild oat [17]): 1 (Herbicidal rate of 5% or more and less than 20%)
herbicidal effect on J: blackgrass (evaluation grade 0-5) (blackgrass [18]): 3 (Herbicidal rate of 40% or more and less than 70%)
herbicidal effect on K: Italian ryegrass (evaluation grade 0-5) (Italian ryegrass [19]): 4 (Herbicidal rate of 70% or more and less than 90%)
herbicidal effect on L: windgrass (evaluation grade 0-5) (windgrass [20]): 5 (Herbicidal rate of 90% or more (almost completely withered))
herbicidal effect on M: velvetleaf (evaluation grade 0-5) (velvetleaf [21]): 5 (Herbicidal rate of 90% or more (almost completely withered))
herbicidal effect on N: redroot pigweed (evaluation grade 0-5) (redroot pigweed [22]): 5 (Herbicidal rate of 90% or more (almost completely withered))
herbicidal effect on O: lambsquarters (evaluation grade 0-5) (lambsquarters [23]): 5 (Herbicidal rate of 90% or more (almost completely withered))
herbicidal effect on P: chickweed (evaluation grade 0-5) (chickweed [24]): 5 (Herbicidal rate of 90% or more (almost completely withered))
herbicidal effect on R: persian speedwell (evaluation grade 0-5) (persian speedwell [25]): 5 (Herbicidal rate of 90% or more (almost completely withered))
